Tested on: MDA-MB-231
Experiment: Antiproliferative activity against human MDA-MB-231 cells assessed as inhibition of cell growth incubated for 72 hrs by MTT assay
Assay type: functional, cell-based
Settings: MDA-MB-231, 72 h

SMILES | IC50 [µM]
C=C1C(=O)O[C@H]2[C@H]1C(COC(=O)CCC(=O)Oc1ccc(-c3cc(=S)ss3)cc1)C/C=C\CC[C@@]1(C)O[C@@H]21 (some centres not stated) | 4.34
C=C1C(=O)O[C@H]2[C@H]1C(COC(=O)CC(C)(C)CC(=O)O)C/C=C\CC[C@@]1(C)O[C@@H]21 (some centres not stated) | 36.4
C=C1C(=O)O[C@H]2[C@H]1C(COC(=O)/C=C/c1ccc(OCc3ccc(-c4cc(=S)ss4)cc3)cc1)C/C=C\CC[C@@]1(C)O[C@@]21C (some centres not stated) | 6.11
C=C1C(=O)O[C@H]2[C@H]1CC/C(C(=O)OCCOc1ccc(-c3cc(=S)ss3)cc1)=C\CC[C@@]1(C)O[C@@H]21 | 2.35
C=C1C(=O)O[C@H]2[C@H]1C(COC(=O)CCCCC(=O)O)C/C=C\CC[C@@]1(C)O[C@@H]21 (some centres not stated) | > 50
C=C1C(=O)O[C@H]2[C@H]1C(COC(=O)CCC(=O)O)C/C=C\CC[C@@]1(C)O[C@@]21C (some centres not stated) | > 50
C=C1C(=O)O[C@H]2[C@H]1C(COC(=O)CC1(CC(=O)Oc3ccc(-c4cc(=S)ss4)cc3)CCCC1)C/C=C\CC[C@@]1(C)O[C@@H]21 (some centres not stated) | 2.11
C=C1C(=O)O[C@H]2[C@H]1C(COC(=O)CCCC(=O)O)C/C=C\CC[C@@]1(C)O[C@@H]21 (some centres not stated) | > 50
C=C1C(=O)O[C@H]2[C@H]1C(COC(=O)CCCC(=O)Oc1ccc(-c3cc(=S)ss3)cc1)C/C=C\CC[C@@]1(C)O[C@@H]21 (some centres not stated) | 8.52
C=C1C(=O)O[C@H]2[C@H]1C(COC(=O)CC1(CC(=O)Oc3ccc(-c4cc(=S)ss4)cc3)CCCCC1)C/C=C\CC[C@@]1(C)O[C@@H]21 (some centres not stated) | 1.76
C=C1C(=O)O[C@H]2[C@H]1CC/C(C(=O)O)=C\CC[C@@]1(C)O[C@@H]21 | > 50
C=C1C(=O)O[C@H]2[C@H]1C(COC(=O)CCCCC(=O)Oc1ccc(-c3cc(=S)ss3)cc1)C/C=C\CC[C@@]1(C)O[C@@H]21 (some centres not stated) | 6.2
